Results on four compounds are retold here after US7897602B2, “Indolinone compounds as kinase inhibitors” (Development Center for Biotechnology, priority 2009, dated 2011).

Common to all, as to assay type: biochemical
One experiment addresses T1, c-Met kinase (Homo sapiens, UniProt P08581).
T1 construct: recombinant N-terminal 6×His-tagged c-Met kinase domain construct expressed from baculovirus; 6xHis (N); made in house
In words: c-Met kinase assay (33P incorporation into Poly(Glu-Tyr)). The following applies: 500 nM test compound. An outline of the steps: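 Single-concentration test (500 nM compound) at 30° C for 30 min, pH 7.0 MOPS buffer with 100 μM ATP and [33P]-γ-ATP. Enzyme was baculovirus-expressed 6×His c-Met kinase domain (5 ng), substrate Poly(Glu-Tyr) 4:1. Inhibition percentage derived from filter-bound counts relative to DMSO control.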

Another experiment concerns the target T2, VEGFR2 kinase (Homo sapiens, UniProt P35968).
T2 construct: recombinant N-terminal 6×His-tagged VEGFR2 kinase domain construct expressed by baculovirus; 6xHis (N); made in house
In words: VEGFR2 kinase assay (33P incorporation into Poly(Glu-Tyr)). The following applies: 500 nM test compound; read-out: Inhibition at 500 nM (%) VEGFr-2. An outline of the steps:
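Recombinant baculovirus-expressed N-terminal His6-tagged VEGFR2 kinase domain (6.25 ng) phosphorylated poly(Glu-Tyr) 4:1 with 100 μM ATP plus [33P]-γ-ATP in MOPS pH 7.0, 30 °C, 30 min. Test compound was at 500 nM (4% DMSO). Filter-retained radioactivity relative to DMSO control gave % inhibition.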

In a further experiment the target is T3, Aurora A kinase (Homo sapiens, UniProt O14965).
T3 construct: purchased Upstate
T3 sequence (O14965 1-403): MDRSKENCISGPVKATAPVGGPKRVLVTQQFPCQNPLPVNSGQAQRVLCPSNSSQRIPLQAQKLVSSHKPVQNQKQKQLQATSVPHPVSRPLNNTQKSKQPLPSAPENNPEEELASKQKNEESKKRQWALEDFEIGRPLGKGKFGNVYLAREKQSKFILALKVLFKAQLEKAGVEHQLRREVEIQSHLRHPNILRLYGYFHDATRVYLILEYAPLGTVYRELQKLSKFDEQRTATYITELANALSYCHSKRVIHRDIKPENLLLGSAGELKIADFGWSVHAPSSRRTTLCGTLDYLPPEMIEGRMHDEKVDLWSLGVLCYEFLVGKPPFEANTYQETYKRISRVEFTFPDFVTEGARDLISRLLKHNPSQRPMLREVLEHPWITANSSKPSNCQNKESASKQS
In words: Aurora A kinase assay ([γ-33P]ATP, CHOCKtide substrate). The note with it: 1.0 μM test compound. An outline of the steps:
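Radiometric filter-binding format: 33P incorporation into CHOCKtide counted after acid stop and filtration. Reactions ran 30 min at 33 °C, Aurora A with 10 μM ATP, Aurora B with 40 μM ATP. IC50 taken as concentration giving half-maximal kinase inhibition.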

T2 sequence (P35968 834-1162 limits assumed): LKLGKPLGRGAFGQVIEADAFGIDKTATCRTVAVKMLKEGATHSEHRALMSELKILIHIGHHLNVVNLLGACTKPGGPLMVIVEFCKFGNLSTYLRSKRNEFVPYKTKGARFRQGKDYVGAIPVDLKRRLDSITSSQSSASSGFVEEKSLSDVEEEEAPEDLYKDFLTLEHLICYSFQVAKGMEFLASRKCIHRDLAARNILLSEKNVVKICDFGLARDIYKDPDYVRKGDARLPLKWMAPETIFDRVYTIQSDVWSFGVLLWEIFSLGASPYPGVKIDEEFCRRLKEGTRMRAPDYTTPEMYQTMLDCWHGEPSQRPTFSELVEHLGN
T1 sequence (P08581 1078-1345 limits assumed): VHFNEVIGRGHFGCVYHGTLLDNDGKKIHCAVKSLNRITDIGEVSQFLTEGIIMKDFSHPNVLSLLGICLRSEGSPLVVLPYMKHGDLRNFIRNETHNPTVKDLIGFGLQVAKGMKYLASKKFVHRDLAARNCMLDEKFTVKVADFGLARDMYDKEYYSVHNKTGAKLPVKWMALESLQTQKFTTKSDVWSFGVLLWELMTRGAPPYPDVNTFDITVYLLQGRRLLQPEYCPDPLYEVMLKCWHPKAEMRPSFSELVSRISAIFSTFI

Take `COc1ccc(C(=O)Nc2ccc3c(c2)/C(=C/c2[nH]c4c(c2CCC(=O)O)C(=O)CCC4)C(=O)N3)cc1` [DCB-70143, (Z)-3-(2-((5-(4-methoxybenzamido)-2-oxoindolin-3-ylidene)methyl)-4-oxo-4,5,6,7-tetrahydro-1H-indol-3-yl)propanoic acid]: the results for the inhibition at 0.5 µM against c-Met kinase and on VEGFR2 kinase were -8.2% and 38.1%, respectively. Also, on Aurora A kinase, the inhibition at 1 µM stood at 31.8%.

For the compound `CN(c1cccc(Cl)c1)S(=O)(=O)c1ccc2c(c1)/C(=C/c1[nH]c3c(c1CCC(=O)O)C(=O)CCCC3)C(=O)N2` [DCB-70148, (Z)-3-(2-((5-(N-(3-chlorophenyl)-N-methylsulfamoyl)-2-oxoindolin-3-ylidene)methyl)-4-oxo-1,4,5,6,7,8-hexahydrocyclohepta[b]pyrrol-3-yl)propanoic acid], the figures for the inhibition at 0.5 µM on c-Met kinase and at VEGFR2 kinase were 74.9% and 67.6%, respectively. For the same compound, at Aurora A kinase, the inhibition at 1 µM worked out at 80.7%.

Take `CCOC(=O)CCc1c(/C=C2\C(=O)Nc3ccc(NC(=O)c4ccc(OC)cc4)cc32)[nH]c2c1C(=O)CCC2` [DCB-70141, (Z)-ethyl 3-(2-((5-(4-methoxybenzamido)-2-oxoindolin-3-ylidene)methyl)-4-oxo-4,5,6,7-tetrahydro-1H-indol-3-yl)propanoate]: the inhibition at 0.5 µM against c-Met kinase was -1.2%; on VEGFR2 kinase, 28.9%. Also, the inhibition at 1 µM against Aurora A kinase came to 9.8%.

`O=C(O)CCc1c(/C=C2\C(=O)Nc3ccc(S(=O)(=O)Nc4ccc(F)c(Cl)c4)cc32)[nH]c2c1C(=O)CCCC2` [DCB-70149, (Z)-3-(2-((5-(N-(3-chloro-4-fluorophenyl)sulfamoyl)-2-oxoindolin-3-ylidene)methyl)-4-oxo-1,4,5,6,7,8-hexahydrocyclohepta[b]pyrrol-3-yl)propanoic acid]: the inhibition at 0.5 µM at c-Met kinase was 8.4%; at VEGFR2 kinase, 57.5%. For the same compound, the inhibition at 1 µM against Aurora A kinase turned out to be 77.5%.

As usually defined, the inhibition is the drop in the measured response relative to a control, in per cent.
